According to EP4653451A1, “POLYPEPTIDE COMPOUND AND USE THEREOF” (Chengdu New Radiomedicine Technology Co., Ltd., priority 2023, dated 2024):
Structures can show the parent of a compound that is named as a salt. Numbered stars: 1 amine (or outer) side, 2 acyl side, 3 side chain; on linkers, the order of the positions; unused ones are H or OH. Bridge positions count the residues as written; N and C are the ends. Square brackets hold non-standard residues; d marks the D form. Peptide text beside a SMILES is read from it. * marks the point of attachment. TBMB(SCH2CH2NH-DOTA) = O=C(O)CN1CCN(CC(=O)O)CCN(CC(=O)NCCSCc2cc(C[*:1])cc(C[*:2])c2)CCN(CC(=O)O)CC1; 1Nal = N[C@@H](Cc1cccc2ccccc12)C(=O)O; β3hC = N[C@@H](CS)CC(=O)O; Hexanoyl = CCCCCC(=O)*

Experiments:
in vitro = details: CD-1, mouse, plasma
Procedure: The plasma stability experiment was performed using plasma from CD-1 mice. The compounds were diluted to a concentration of 1 mM with methanol. To 0.792 mL of plasma, 8.00 µL of 1 mM of each test compound was added, and 50.0 µL of the plasma sample was taken after uniform mixing. The remaining sample was placed in a 37°C water bath and incubated for 24 h. […] After centrifugation, the sample was diluted 1-fold with 0.2% trifluoroacetic acid and analyzed by LC-MS/MS.

[1] = molecular target: T1, human recombinant DPP4 protein (Homo sapiens, UniProt P27487); assay: Inhibitory activity against DPP4 protease activity (H-Gly-Pro-AMC fluorescence); format: biochemical; details: 125 pM DPP4 working solution, 90 min at room temperature
T1 construct: purchased Acrobiosystems DP4-H5211
T1 sequence (P27487 whole entry): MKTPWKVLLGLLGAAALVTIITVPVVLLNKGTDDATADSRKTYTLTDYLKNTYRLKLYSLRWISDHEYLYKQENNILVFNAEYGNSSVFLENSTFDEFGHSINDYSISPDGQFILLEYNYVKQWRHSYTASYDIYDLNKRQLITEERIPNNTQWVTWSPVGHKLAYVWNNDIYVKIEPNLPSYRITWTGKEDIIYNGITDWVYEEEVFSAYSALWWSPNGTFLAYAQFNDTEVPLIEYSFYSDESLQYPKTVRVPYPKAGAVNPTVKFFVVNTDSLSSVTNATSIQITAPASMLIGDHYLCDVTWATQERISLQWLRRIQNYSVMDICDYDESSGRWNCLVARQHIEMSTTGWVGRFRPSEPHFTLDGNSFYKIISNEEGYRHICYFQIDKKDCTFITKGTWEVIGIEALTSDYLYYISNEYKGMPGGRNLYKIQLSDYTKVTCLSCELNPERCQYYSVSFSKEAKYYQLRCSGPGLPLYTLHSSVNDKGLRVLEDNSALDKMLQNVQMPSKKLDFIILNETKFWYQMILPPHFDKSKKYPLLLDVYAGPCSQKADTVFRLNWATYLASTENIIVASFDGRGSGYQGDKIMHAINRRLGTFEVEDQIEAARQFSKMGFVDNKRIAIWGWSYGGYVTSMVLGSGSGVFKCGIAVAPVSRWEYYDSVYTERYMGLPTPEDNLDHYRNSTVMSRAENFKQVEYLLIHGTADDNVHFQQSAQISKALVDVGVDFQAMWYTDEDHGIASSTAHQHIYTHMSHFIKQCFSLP
Procedure: The human recombinant DPP4 protein (Acrobiosystems, DP4-H5211) was formulated into a 125 pM working solution with an assay buffer (20 mM Tris-HCl, 100 mM NaCl), and the DPP4 substrate (H-Gly-Pro-AMC.HBr (LEONBIO, 115035-46-6)) was diluted to a 250 µM DPP4 substrate working solution with the assay buffer. 40 µl of DPP4 working solution and 20 µl of compounds at different concentrations (4-fold dilution) were taken, then 40 µl of DPP4 substrate working solution was added, and the mixture was uniformly mixed on a shaker at room temperature for 1 min. The uniformly mixed mixture was reacted at room temperature in the dark for 90 min. Reading was made by microplate reader at excitation and emission wavelengths of 380 nm and 460 nm. The original data was saved, and the IC50 value of the compound was obtained by analyzing the data with Graphpad PRISM.

[2] = molecular target: T2, human recombinant FAP protein (Homo sapiens, UniProt Q12884); assay: Inhibitory activity against FAP protease activity (Z-Gly-Pro-AMC fluorescence); format: biochemical; details: 125 pM FAP working solution, 90 min at room temperature; read-out: FAP IC50
T2 construct: purchased Acrobiosystems FAP-H82Q6
T2 sequence (Q12884 1-760): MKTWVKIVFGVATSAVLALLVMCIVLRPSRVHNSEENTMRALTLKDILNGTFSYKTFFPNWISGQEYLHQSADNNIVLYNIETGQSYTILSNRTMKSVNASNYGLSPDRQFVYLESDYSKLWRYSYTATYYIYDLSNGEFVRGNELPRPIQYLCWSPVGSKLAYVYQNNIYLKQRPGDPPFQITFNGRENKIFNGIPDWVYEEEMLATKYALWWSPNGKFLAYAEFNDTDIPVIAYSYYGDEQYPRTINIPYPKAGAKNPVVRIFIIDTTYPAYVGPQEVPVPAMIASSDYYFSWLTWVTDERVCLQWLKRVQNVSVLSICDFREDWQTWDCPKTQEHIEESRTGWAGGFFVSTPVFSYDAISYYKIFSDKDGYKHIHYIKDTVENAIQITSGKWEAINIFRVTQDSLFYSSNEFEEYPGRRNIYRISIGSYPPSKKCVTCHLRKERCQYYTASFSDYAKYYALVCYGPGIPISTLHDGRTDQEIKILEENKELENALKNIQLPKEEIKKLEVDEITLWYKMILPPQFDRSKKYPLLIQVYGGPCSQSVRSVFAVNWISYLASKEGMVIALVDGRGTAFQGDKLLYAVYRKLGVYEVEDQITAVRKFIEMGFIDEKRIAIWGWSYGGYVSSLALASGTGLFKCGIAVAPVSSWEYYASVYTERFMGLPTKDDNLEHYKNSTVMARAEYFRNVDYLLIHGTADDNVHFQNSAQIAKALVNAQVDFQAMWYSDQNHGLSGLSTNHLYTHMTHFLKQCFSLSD
Procedure: The human recombinant FAP protein (Acrobiosystems, FAP-H82Q6) was diluted to a 125 pM FAP working solution with an assay buffer (50 mM Tris-HCl, 1 M NaCl, 1 mg/mL BSA, pH 7.5), and the FAP substrate (Z-Gly-Pro-AMC (LEONBIO, 68542-93-8)) was diluted to a 150 µM substrate working solution with the assay buffer. 40 µl of FAP working solution and 20 µl of compounds at different concentrations (4-fold dilution) were taken, then 40 µl of substrate working solution was added, and the mixture was uniformly mixed on a shaker at room temperature for 1 min. The uniformly mixed mixture was reacted at room temperature in the dark for 90 min. The fluorescence value Ex = 380 nm/Em = 460 nm was read by using a microplate reader. The original data was saved, and the IC50 value of the compound was obtained by using the original data or the Inhibition% via calculation and analyzing the data with Graphpad PRISM.

[3] = Pharmacokinetics after tail vein injection; format: in vivo, CD-1 mice; details: male, CD-1, mouse, in vivo, iv, 0.2 mg/kg
Procedure: Male CD-1 mice weighing 30-35 g were selected, and a test compound was injected into the tail vein at 0.2 mg/kg. Plasma samples were collected at 5, 15, 30, and 60 min and 2, 4, 8, and 24 h after administration and processed accordingly. The drug content was analyzed by LC-MS/MS.
Among them, compounds 20, 21 and 22 were compounds formed by chelating nonradioactive in with compounds 11, 14 and 16, respectively.

HEK293-FAP cells = assay: Distribution in tissues of HEK293-FAP tumor-bearing mice (gamma counter); format: in vivo, SCID mice; details: for injection dose%/g tissue at different time points / tissue selectivity for kidney and blood tissues: mouse, in vivo; for Blood / Kidney / Tumor: 100 µCi, SCID mice with HEK293-FAP tumor
Procedure: (§1) Male SCID mice (6-8 weeks old) were subcutaneously inoculated with 5 × 10^6 HEK293-FAP cells (FAP was highly expressed in HEK293 cells). 10 days later, 30 mice with tumor size of 200-300 mm^3 were randomly divided into 3 groups. Each mouse in the 3 groups was administered with compound ^177Lu-3BP-3554, compound 29 and compound 30 with a radiation dose of 100 µCi, respectively. Blood, kidney and tumor tissues were collected at time points of 4 h, 8 h, 24 h, 72 h and 168 h, and all blood samples and tissue samples were measured for radioactive counts by gamma counter.

[4] = as above; format: in vivo, SCID mice; details: male, SCID, mouse, in vivo, 100 uCi, total radioactivity
Procedure: as §1

CCCCCC(=O)N[C@H]1CSCc2cc(CSCCNC(=O)CN3CCN(CC(=O)O)CCN(CC(=O)O)CCN(CC(=O)O)CC3)cc(c2)CSC[C@@H](C(=O)O)NC(=O)[C@H](Cc2ccccc2)NC(=O)[C@H](CCC(N)=O)NC(=O)[C@H]([C@@H](C)O)NC(=O)[C@@H]2CCCN2C(=O)[C@@H]2CCCN2C1=O [Compound 3BP-3554, reference compound]
remaining at 24 h, 10 µM (in vitro): 87% | IC50 [1]: > 10 µM

CCCCCC(=O)N[C@H]1CSCc2cc(CSCCNC(=O)CN3CCN(CC(=O)O)CCN(CC(=O)O)CCN(CC(=O)O)CC3)cc(c2)CSC[C@@H](CC(=O)O)NC(=O)[C@H](Cc2cccc3ccccc23)NC(=O)[C@H](CCC(N)=O)NC(=O)[C@H]([C@@H](C)O)NC(=O)[C@@H]2CCCN2C(=O)[C@@H]2CCCN2C1=O [Compound 11, Hex-Cys-Pro-Pro-Thr-Gln-1Nal-beta-HomoCys (Cys bridge TBMB (DOTA-AET)) trifluoroacetate] (Hexanoyl-CPPTQ[1Nal][β3hC]-OH; linker 1-7 via TBMB(SCH2CH2NH-DOTA))
IC50 [2]: 0.26 nM | remaining at 24 h, 10 µM (in vitro): 94% | IC50 [1]: > 10 µM

CCCCCC(=O)N[C@H]1CSCc2cc(CSCCNC(=O)CN3CCN(CC(=O)O)CCN(CC(=O)O)CCN(CC(=O)O)CC3)cc(c2)CSC[C@@H](CC(=O)N[C@@H](Cc2ccc3ccccc3c2)C(=O)O)NC(=O)[C@H](Cc2ccccc2)NC(=O)[C@H](CCC(N)=O)NC(=O)[C@H]([C@@H](C)O)NC(=O)[C@@H]2CCCN2C(=O)[C@@H]2CCCN2C1=O [Compound 13, Hex-Cys-Pro-Pro-Thr-Gln-Phe-beta-HomoCys-2Nal (Cys bridge TBMB (DOTA-AET)) trifluoroacetate]
IC50 [2]: 0.97 nM | remaining at 24 h, 10 µM (in vitro): 100% | IC50 [1]: > 10 µM

CCCCCC(=O)N[C@H]1CSCc2cccc(c2F)CSC[C@@H](CNC(=O)C[C@@H](C)NC(=O)[C@H]2CC[C@H](CNC(=O)CN3CCN(CC(=O)O)CCN(CC(=O)O)CCN(CC(=O)O)CC3)CC2)NC(=O)[C@H](Cc2ccccc2)NC(=O)[C@H](CCC(N)=O)NC(=O)[C@H]([C@@H](C)O)NC(=O)[C@@H]2CCCN2C(=O)[C@@H]2CCCN2C1=O [Compound 22]
AUC(0-t) [3]: 740 ng·h/mL | Cmax [3]: 1120 ng/mL | Vd [3]: 1.18 L/kg | clearance [3]: 4.33 mL/min/kg | half-life [3]: 476 min

CCCCCC(=O)N[C@H]1CSCc2cc(CSCCNC(=O)CN3CCN(CC(=O)O)CCN(CC(=O)O)CCN(CC(=O)O)CC3)cc(c2)CSC[C@@H](CC(=O)O)NC(=O)[C@H](Cc2cccc3ccccc23)NC(=O)[C@H](CCC(N)=O)NC(=O)[C@H]([C@@H](C)O)NC(=O)[C@@H]2CCCN2C(=O)[C@@H]2CCCN2C1=O [Compound 29] (Hexanoyl-CPPTQ[1Nal][β3hC]-OH; linker 1-7 via TBMB(SCH2CH2NH-DOTA))
injection dose%/g tissue at different time points (HEK293-FAP cells): significantly higher than that of ^177Lu-3BP-3554 | tissue selectivity for kidney and blood tissues (HEK293-FAP cells): better tissue selectivity for kidney and blood tissues than ^177Lu-3BP-3554 | tissue to tissue ratio at 4 h ([4]; Tumor/blood): 26.2 | tissue to tissue ratio at 8 h ([4]; Tumor/blood): 70.1 | tissue to tissue ratio at 24 h ([4]; Tumor/blood): 1630 | tissue to tissue ratio at 72 h ([4]; Tumor/blood): 2410 | tissue to tissue ratio at 168 h ([4]; Tumor/blood): 1160 | tissue to tissue ratio at 4 h ([4]; Tumor/kidney): 2.32 | tissue to tissue ratio at 8 h ([4]; Tumor/kidney): 3.18 | tissue to tissue ratio at 24 h ([4]; Tumor/kidney): 3.99 | tissue to tissue ratio at 72 h ([4]; Tumor/kidney): 7.12 | tissue to tissue ratio at 168 h ([4]; Tumor/kidney): 27.6

CCCCCC(=O)N[C@H]1CSCc2cccc(c2F)CSC[C@@H](CNC(=O)C[C@@H](C)NC(=O)[C@H]2CC[C@H](CNC(=O)CN3CCN(CC(=O)O)CCN(CC(=O)O)CCN(CC(=O)O)CC3)CC2)NC(=O)[C@H](Cc2ccccc2)NC(=O)[C@H](CCC(N)=O)NC(=O)[C@H]([C@@H](C)O)NC(=O)[C@@H]2CCCN2C(=O)[C@@H]2CCCN2C1=O [Compound 30]
injection dose%/g tissue at different time points (HEK293-FAP cells): significantly higher than that of ^177Lu-3BP-3554 | tissue selectivity for kidney and blood tissues (HEK293-FAP cells): better tissue selectivity for kidney and blood tissues than ^177Lu-3BP-3554 | tissue to tissue ratio at 4 h ([4]; Tumor/blood): 16.3 | tissue to tissue ratio at 8 h ([4]; Tumor/blood): 32.3 | tissue to tissue ratio at 24 h ([4]; Tumor/blood): 212 | tissue to tissue ratio at 72 h ([4]; Tumor/blood): 1100 | tissue to tissue ratio at 168 h ([4]; Tumor/blood): 484 | tissue to tissue ratio at 4 h ([4]; Tumor/kidney): 6.88 | tissue to tissue ratio at 8 h ([4]; Tumor/kidney): 5.56 | tissue to tissue ratio at 24 h ([4]; Tumor/kidney): 5.95 | tissue to tissue ratio at 72 h ([4]; Tumor/kidney): 6.98 | tissue to tissue ratio at 168 h ([4]; Tumor/kidney): 11.8

CCCCCC(=O)N[C@H]1CSCc2cc(CSCCNC(=O)CN3CCN(CC(=O)O)CCN(CC(=O)O)CCN(CC(=O)O)CC3)cc(c2)CSC[C@@H](C(=O)O)NC(=O)[C@H](Cc2ccccc2)NC(=O)[C@H](CCC(N)=O)NC(=O)[C@H]([C@@H](C)O)NC(=O)[C@@H]2CCCN2C(=O)[C@@H]2CCCN2C1=O [^177Lu-3BP-3554, metal not drawn, reference compound]
Blood (HEK293-FAP cells; 4 h): 0.07 ID %/g | Kidney (HEK293-FAP cells; 4 h): 6.65 ID %/g | Tumor (HEK293-FAP cells; 4 h): 21.21 ID %/g | Blood (HEK293-FAP cells; 8 h): 0.02 ID %/g | Kidney (HEK293-FAP cells; 8 h): 6.37 ID %/g | Tumor (HEK293-FAP cells; 8 h): 18.42 ID %/g | Blood (HEK293-FAP cells; 24 h): 0.01 ID %/g | Kidney (HEK293-FAP cells; 24 h): 2.92 ID %/g | Tumor (HEK293-FAP cells; 24 h): 10.37 ID %/g | Blood (HEK293-FAP cells; 72 h): 0.0038 ID %/g | Kidney (HEK293-FAP cells; 72 h): 0.86 ID %/g | Tumor (HEK293-FAP cells; 72 h): 5.05 ID %/g | Blood (HEK293-FAP cells; 168 h): 0.0091 ID %/g | Kidney (HEK293-FAP cells; 168 h): 0.16 ID %/g | Tumor (HEK293-FAP cells; 168 h): 1.52 ID %/g
